Experimental data: ChEMBL document CHEMBL5696441 (Nat Chem Biol, 2011)

Columns and labels:
[1] = target: Tyrosine-protein kinase ABL2 (Homo sapiens) (UniProt P42684); assay: Inhibition of ABL2 (unknown origin) assessed as remaining activity at 1 uM by Kinome scan method relative to control
[2] = target: 5'-AMP-activated protein kinase catalytic subunit alpha-1 (Homo sapiens) (UniProt Q13131); assay: Inhibition of AMPK-alpha1 (unknown origin) assessed as remaining activity at 1 uM by Kinome scan method relative to control
[3] = target: Tyrosine-protein kinase receptor UFO (Homo sapiens) (UniProt P30530); assay: Inhibition of AXL (unknown origin) assessed as remaining activity at 1 uM by Kinome scan method relative to control
[4] = target: Mitogen-activated protein kinase 3 (Homo sapiens) (UniProt P27361); assay: Inhibition of ERK1 (unknown origin) assessed as remaining activity at 1 uM by Kinome scan method relative to control
[5] = target: Phosphatidylinositol 4-phosphate 3-kinase C2 domain-containing subunit beta (Homo sapiens) (UniProt O00750); assay: Inhibition of PIK3C2B (unknown origin) assessed as remaining activity at 1 uM by Kinome scan method relative to control
[6] = tested on: Phosphatidylinositol 4,5-bisphosphate 3-kinase catalytic subunit alpha isoform (Homo sapiens), P42336 [E542K]; assay: Inhibition of PIK3CA E542K mutant (unknown origin) assessed as remaining activity at 1 uM by Kinome scan method relative to control
[7] = tested on: Phosphatidylinositol 4,5-bisphosphate 3-kinase catalytic subunit alpha isoform (Homo sapiens), P42336 [E545A]; assay: Inhibition of PIK3CA E545A mutant (unknown origin) assessed as remaining activity at 1 uM by Kinome scan method relative to control
[8] = target: Tyrosine-protein kinase receptor TYRO3 (Homo sapiens) (UniProt Q06418); assay: Inhibition of TYRO3 (unknown origin) assessed as remaining activity at 1 uM by Kinome scan method relative to control
[9] = target: Wee1-like protein kinase 2 (Homo sapiens) (UniProt P0C1S8); assay: Inhibition of WEE2 (unknown origin) assessed as remaining activity at 1 uM by Kinome scan method relative to control
[10] = tested on: Tyrosine-protein kinase ABL1 (Homo sapiens), P00519 [T315I]; assay: Inhibition of human ABL1 T315I mutant assessed as residual activity at 1 uM using Poly(Ala,Glu,Lys,Tyr)6:2:5:1 as substrate in presence of 33P-ATP by ProQinase assay relative to control
[11] = target: Calcium/calmodulin-dependent protein kinase type II subunit beta (Homo sapiens) (UniProt Q13554); assay: Inhibition of human CAMK2B assessed as residual activity at 1 uM using RBER-CHKtide as substrate in presence of 33P-ATP by ProQinase assay relative to control
[12] = target: CDK1/Cyclin E (Homo sapiens) (UniProt P06493+P24864); assay: Inhibition of human CDK1/Cyclin E1 assessed as residual activity at 1 uM using RBER-CHKtide as substrate in presence of 33P-ATP by ProQinase assay relative to control; assay type: protein-complex assay
[13] = tested on: Epidermal growth factor receptor (Homo sapiens), P00533 [L861Q]; assay: Inhibition of human EGFR L861Q mutant assessed as residual activity at 1 uM using PolyEY as substrate in presence of 33P-ATP by ProQinase assay relative to control
[14] = target: Ephrin type-A receptor 5 (Homo sapiens) (UniProt P54756); assay: Inhibition of human EPHA5 assessed as residual activity at 1 uM using polyEY as substrate in presence of 33P-ATP by ProQinase assay relative to control
[15] = target: Leucine-rich repeat serine/threonine-protein kinase 2 (Homo sapiens) (UniProt Q5S007); assay: Inhibition of human LRRK2 assessed as residual activity at 1 uM using RBER-GSK3(14-27) as substrate in presence of 33P-ATP by ProQinase assay relative to control
[16] = target: Mitogen-activated protein kinase kinase kinase 11 (Homo sapiens) (UniProt Q16584); assay: Inhibition of human MAP3K11 assessed as residual activity at 1 uM using MBP as substrate in presence of 33P-ATP by ProQinase assay relative to control
[17] = target: Mitogen-activated protein kinase kinase kinase kinase 5 (Homo sapiens) (UniProt Q9Y4K4); assay: Inhibition of human MAP4K5 assessed as residual activity at 1 uM using casein as substrate in presence of 33P-ATP by ProQinase assay relative to control
[18] = target: Mitogen-activated protein kinase kinase kinase 3 (Homo sapiens) (UniProt Q99759); assay: Inhibition of human MEKK3 assessed as residual activity at 1 uM using casein as substrate in presence of 33P-ATP by ProQinase assay relative to control
[19] = target: Serine/threonine-protein kinase Nek3 (Homo sapiens) (UniProt P51956); assay: Inhibition of human NEK3 assessed as residual activity at 1 uM using RBER-CHKtide as substrate in presence of 33P-ATP by ProQinase assay relative to control
[20] = target: Serine/threonine-protein kinase pim-1 (Homo sapiens) (UniProt P11309); assay: Inhibition of human PIM1 assessed as residual activity at 1 uM using RBER-GSK3(14-27) as substrate in presence of 33P-ATP by ProQinase assay relative to control
[21] = target: Protein kinase C beta type (Homo sapiens) (UniProt P05771); assay: Inhibition of human PKCbeta1 assessed as residual activity at 1 uM using 3xChocktide-PKC(19-31) as substrate in presence of 33P-ATP by ProQinase assay relative to control
[22] = tested on: Proto-oncogene tyrosine-protein kinase receptor Ret (Homo sapiens), P07949 [Y791F]; assay: Inhibition of human RET Y791F mutant assessed as residual activity at 1 uM using polyEY as substrate in presence of 33P-ATP by ProQinase assay relative to control
[23] = target: Ribosomal protein S6 kinase alpha-5 (Homo sapiens) (UniProt O75582); assay: Inhibition of human RPS6KA5 assessed as residual activity at 1 uM using RBER-CHKtide as substrate in presence of 33P-ATP by ProQinase assay relative to control
[24] = target: Testis-specific serine/threonine-protein kinase 2 (Homo sapiens) (UniProt Q96PF2); assay: Inhibition of human TSK2 assessed as residual activity at 1 uM using RBER-CHKtide as substrate in presence of 33P-ATP by ProQinase assay relative to control
[25] = Anti-inflammatory activity against human derived high respond PBMC cells assessed as inhibition in stimulated IL-1beta cytokine release incubated for 2 hrs in the presence of LPS/SEB/aCD28 by Luminex based sandwich immunoassay; assay type: functional, cell-based
[26] = Anti-inflammatory activity against human derived medium respond PBMC cells assessed as inhibition in stimulated IL-8 cytokine release incubated for 2 hrs in the presence of LPS/SEB/aCD28 by Luminex based sandwich immunoassay; assay type: functional, cell-based
[27] = Plasma concentration in Gal/LPS induced mouse at 3 mg/kg, po for 1 hrs; assay type: ADME, organism-based

Tyrosine-protein kinase receptor UFO (Homo sapiens), sequence (P30530 whole entry): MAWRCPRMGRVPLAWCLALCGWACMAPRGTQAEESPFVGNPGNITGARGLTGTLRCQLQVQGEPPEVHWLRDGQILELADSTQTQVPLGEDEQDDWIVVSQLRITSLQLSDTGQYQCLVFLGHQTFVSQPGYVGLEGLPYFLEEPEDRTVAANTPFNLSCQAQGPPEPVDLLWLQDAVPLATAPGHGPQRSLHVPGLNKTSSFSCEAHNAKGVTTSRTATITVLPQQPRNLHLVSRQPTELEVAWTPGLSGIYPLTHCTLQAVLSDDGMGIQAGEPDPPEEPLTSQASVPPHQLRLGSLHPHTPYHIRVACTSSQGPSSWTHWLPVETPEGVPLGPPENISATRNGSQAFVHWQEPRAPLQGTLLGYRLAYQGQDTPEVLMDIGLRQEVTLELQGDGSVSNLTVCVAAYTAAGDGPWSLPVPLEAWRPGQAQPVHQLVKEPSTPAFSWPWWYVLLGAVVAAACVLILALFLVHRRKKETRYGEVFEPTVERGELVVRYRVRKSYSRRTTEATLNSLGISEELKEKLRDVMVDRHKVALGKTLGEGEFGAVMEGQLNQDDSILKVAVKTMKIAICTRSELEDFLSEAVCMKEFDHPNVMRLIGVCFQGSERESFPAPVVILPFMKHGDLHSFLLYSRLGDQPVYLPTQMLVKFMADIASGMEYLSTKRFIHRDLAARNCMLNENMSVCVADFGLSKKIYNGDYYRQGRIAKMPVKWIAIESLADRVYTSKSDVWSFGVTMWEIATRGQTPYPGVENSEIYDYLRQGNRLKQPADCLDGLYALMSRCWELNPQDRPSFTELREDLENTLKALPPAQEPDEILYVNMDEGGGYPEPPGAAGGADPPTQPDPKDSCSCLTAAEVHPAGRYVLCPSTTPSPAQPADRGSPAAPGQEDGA
Proto-oncogene tyrosine-protein kinase receptor Ret (Homo sapiens), P07949 [Y791F], sequence (P07949 whole entry Y791F): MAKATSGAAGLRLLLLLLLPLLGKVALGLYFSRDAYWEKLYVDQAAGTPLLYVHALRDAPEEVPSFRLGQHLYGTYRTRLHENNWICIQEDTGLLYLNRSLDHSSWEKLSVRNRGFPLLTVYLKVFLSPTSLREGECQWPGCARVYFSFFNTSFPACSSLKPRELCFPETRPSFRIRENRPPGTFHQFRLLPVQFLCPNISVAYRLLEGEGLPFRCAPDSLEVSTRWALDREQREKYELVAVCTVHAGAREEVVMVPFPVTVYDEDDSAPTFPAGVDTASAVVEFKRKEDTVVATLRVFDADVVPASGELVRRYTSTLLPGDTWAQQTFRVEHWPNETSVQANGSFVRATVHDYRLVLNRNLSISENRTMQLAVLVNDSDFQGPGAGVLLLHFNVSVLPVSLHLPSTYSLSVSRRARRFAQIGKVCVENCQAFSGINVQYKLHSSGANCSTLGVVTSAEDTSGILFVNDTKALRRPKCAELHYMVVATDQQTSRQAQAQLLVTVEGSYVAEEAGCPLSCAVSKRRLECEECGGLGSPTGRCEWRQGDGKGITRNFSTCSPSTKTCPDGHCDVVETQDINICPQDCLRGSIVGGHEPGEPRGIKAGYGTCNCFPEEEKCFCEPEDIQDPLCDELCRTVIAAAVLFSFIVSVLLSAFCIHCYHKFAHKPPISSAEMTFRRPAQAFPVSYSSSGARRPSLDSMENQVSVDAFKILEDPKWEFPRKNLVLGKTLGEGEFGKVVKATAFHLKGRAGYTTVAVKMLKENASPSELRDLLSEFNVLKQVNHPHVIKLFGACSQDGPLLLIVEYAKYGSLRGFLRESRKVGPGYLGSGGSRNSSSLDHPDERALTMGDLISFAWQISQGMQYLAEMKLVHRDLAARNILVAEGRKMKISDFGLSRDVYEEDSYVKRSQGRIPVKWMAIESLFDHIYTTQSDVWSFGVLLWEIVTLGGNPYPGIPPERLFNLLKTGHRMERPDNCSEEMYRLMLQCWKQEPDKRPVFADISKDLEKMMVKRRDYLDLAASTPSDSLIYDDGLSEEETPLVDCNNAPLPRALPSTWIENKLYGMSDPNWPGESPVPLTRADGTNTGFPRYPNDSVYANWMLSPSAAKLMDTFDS
5'-AMP-activated protein kinase catalytic subunit alpha-1 (Homo sapiens), sequence (Q13131 whole entry, looked up): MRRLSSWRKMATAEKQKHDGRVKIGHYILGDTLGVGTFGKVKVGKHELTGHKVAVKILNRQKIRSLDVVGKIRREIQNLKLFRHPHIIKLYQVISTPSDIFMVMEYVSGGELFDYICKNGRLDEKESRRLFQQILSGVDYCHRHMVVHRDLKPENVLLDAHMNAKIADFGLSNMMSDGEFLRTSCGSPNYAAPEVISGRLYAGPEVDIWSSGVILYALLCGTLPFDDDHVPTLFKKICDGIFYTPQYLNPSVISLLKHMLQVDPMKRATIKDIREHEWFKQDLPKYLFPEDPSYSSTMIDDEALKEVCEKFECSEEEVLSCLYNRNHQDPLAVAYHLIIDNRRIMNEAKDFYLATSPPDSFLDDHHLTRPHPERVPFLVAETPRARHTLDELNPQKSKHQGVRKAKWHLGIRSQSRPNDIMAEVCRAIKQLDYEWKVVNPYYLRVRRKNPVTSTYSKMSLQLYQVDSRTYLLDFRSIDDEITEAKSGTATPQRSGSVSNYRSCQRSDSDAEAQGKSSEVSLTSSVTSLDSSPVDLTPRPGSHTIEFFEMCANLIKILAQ
Tyrosine-protein kinase ABL2 (Homo sapiens), sequence (P42684 whole entry): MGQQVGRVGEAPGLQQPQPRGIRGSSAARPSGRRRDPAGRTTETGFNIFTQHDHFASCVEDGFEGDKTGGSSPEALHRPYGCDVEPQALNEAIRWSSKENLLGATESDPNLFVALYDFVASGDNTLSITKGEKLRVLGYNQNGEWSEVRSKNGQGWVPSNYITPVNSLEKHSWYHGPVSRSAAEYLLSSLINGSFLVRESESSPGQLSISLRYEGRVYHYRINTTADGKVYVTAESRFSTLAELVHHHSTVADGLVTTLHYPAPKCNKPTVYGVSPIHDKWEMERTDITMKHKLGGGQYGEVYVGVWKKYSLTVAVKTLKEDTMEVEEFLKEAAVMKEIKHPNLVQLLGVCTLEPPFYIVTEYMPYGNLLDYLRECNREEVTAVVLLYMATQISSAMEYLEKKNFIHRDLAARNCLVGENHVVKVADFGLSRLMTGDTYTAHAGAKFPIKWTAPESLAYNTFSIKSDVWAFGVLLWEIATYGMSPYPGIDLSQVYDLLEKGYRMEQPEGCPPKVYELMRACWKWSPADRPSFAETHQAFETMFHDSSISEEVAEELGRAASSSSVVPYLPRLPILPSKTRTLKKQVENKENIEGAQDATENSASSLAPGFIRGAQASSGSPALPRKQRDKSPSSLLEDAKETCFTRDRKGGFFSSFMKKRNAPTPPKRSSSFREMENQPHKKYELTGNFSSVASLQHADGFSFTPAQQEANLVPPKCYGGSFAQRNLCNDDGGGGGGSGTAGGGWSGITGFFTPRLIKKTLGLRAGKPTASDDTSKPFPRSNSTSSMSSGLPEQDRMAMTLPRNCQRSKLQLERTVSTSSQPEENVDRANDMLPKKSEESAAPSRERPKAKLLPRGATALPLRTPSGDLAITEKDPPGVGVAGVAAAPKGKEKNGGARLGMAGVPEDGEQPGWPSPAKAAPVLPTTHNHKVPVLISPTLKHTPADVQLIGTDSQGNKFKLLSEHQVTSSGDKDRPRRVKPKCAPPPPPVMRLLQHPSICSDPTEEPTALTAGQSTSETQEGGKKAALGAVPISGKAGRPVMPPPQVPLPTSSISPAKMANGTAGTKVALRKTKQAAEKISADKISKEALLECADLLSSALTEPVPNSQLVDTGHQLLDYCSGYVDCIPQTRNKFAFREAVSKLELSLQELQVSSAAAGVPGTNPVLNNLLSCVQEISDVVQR
Ephrin type-A receptor 5 (Homo sapiens), sequence (P54756 whole entry): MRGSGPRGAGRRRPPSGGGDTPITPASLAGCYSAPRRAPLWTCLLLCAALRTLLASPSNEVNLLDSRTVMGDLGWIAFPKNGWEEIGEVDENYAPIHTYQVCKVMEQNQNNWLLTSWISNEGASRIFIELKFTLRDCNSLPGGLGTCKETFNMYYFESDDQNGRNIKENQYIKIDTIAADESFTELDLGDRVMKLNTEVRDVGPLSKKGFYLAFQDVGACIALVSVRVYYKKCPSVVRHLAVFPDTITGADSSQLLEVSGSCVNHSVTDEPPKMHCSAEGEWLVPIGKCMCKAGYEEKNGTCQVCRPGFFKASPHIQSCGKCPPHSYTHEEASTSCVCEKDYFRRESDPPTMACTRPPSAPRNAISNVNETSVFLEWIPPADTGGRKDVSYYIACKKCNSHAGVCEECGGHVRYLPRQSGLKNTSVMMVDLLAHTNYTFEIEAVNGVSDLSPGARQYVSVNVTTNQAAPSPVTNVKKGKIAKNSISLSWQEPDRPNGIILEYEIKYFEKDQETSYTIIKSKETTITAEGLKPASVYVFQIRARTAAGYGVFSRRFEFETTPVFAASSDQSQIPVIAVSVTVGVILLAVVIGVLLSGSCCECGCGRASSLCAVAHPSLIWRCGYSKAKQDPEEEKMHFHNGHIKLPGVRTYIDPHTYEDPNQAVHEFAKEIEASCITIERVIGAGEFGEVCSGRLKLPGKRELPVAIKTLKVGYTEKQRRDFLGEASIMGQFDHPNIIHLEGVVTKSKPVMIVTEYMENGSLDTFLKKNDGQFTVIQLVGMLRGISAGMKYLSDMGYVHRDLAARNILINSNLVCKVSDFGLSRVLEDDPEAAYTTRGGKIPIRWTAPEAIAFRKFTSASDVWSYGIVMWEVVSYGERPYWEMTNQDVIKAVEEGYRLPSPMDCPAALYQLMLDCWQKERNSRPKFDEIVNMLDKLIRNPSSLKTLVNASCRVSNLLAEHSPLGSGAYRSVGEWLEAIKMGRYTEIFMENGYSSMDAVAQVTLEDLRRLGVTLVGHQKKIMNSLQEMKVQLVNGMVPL
Serine/threonine-protein kinase pim-1 (Homo sapiens), sequence (P11309 whole entry, looked up): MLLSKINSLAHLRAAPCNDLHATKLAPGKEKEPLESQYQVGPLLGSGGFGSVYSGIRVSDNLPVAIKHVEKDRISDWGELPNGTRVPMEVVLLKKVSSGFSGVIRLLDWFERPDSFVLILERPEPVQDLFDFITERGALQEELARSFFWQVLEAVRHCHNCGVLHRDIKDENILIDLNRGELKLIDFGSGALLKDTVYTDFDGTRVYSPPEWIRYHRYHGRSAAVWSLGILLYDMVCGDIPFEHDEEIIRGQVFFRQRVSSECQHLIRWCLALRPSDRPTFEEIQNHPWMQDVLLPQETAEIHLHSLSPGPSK

With `O=C1c2ccc(Nc3ccc(F)cc3F)cc2CCc2ccc(OC[C@H](O)CO)cc21` [Skepinone-L] the Activity [1] was 100%, the Activity [2] was 98% and the Activity [3] was 94%. For the same molecule, the Activity [4] was 100%, the Activity [5] was 100% and the Activity [6] was 100%. For the same molecule, the Activity [7] was 100%, the Activity [8] was 100% and the Activity [9] was 90%. It also gave an Activity [10] of 93%, an Activity [11] of 86% and an Activity [12] of 87%. For the same molecule, the Activity [13] was 94%, the Activity [14] was 132% and the Activity [15] was 98%. For the same molecule, the Activity [16] was 114%, the Activity [17] was 84% and the Activity [18] was 96%. The Activity [19] was 85%, the Activity [20] was 105% and the Activity [21] was 103%. The Activity [22] was 141%, the Activity [23] was 77% and the Activity [24] was 82%. The IC50 [25] was 30 nM, the IC50 [26] was 60 nM and the concentration at 1 h [27] was 240 nM.
